Experimental data: ChEMBL document CHEMBL1614632, “Trend analysis of a database of intravenous pharmacokinetic parameters in humans for 670 drug compounds” (Drug Metab Dispos, 2008)

Assays:
[1] = clinical; settings: human, in vivo, iv, Vdss
[2] = clinical; settings: human, in vivo, iv, CL
[3] = clinical; settings: human, in vivo, iv
[4] = clinical; settings: human, in vivo, iv; remark: listed apart in the source
[5] = clinical; settings: human, in vivo, iv, t1/2

| SMILES | Vd [1] | clearance [2] | fraction unbound [3] | MRT [4] | half-life [5] |
| --- | --- | --- | --- | --- | --- |
| CC(C)(C)NCC(O)COc1cccc2c1CC(O)C(O)C2 (stereo not given) [NADOLOL] | 1.9 L/kg | 2.9 mL/min/kg | 0.14 | 11 h | 9.2 h |
| CCn1cc(C(=O)O)c(=O)c2cc(F)c(N3CCNCC3)nc21 [ENOXACIN] | 2 L/kg | 5.4 mL/min/kg | 0.8 | 6.2 h | 5.1 h |
| CO/N=C(\C(=O)N[C@@H]1C(=O)N2C(C(=O)O)=CCS[C@H]12)c1csc(N)n1 [CEFTIZOXIME] | 0.2 L/kg | 2.1 mL/min/kg | 0.72 | 1.6 h | 1.5 h |
| CN1C(=O)NC(=O)C(C)(C2=CCCCC2)C1=O (stereo not given) [HEXOBARBITAL] | 1.1 L/kg | 3.4 mL/min/kg | 0.53 | 5.4 h | 4.9 h |
| C[C@H](O)C(=O)Nc1c(I)c(C(=O)NC(CO)CO)c(I)c(C(=O)NC(CO)CO)c1I [IOPAMIDOL] | 0.28 L/kg | 1.9 mL/min/kg | 1 | 2.5 h | 2.1 h |
| CSc1ccc(C(=O)c2[nH]c(=O)[nH]c2C)cc1 [ENOXIMONE] | 1.8 L/kg | 29 mL/min/kg | 0.3 | 1 h | 1 h |
| Cc1cccc(C)c1OCC(C)N (stereo not given) [MEXILETINE] | 5.9 L/kg | 8.3 mL/min/kg | 0.36 | 12 h | 9.9 h |
| Cc1cccc(C)c1NC(=O)C1CCCCN1C (stereo not given) [MEPIVACAINE] | 0.95 L/kg | 6.8 mL/min/kg | 0.3 | 2.5 h | 2 h |
| CO/N=C(\C(=O)N[C@@H]1C(=O)N2C(C(=O)O)=C(CSc3nc(=O)c(=O)[nH]n3C)CS[C@H]12)c1csc(N)n1 [CEFTRIAXONE] | 0.085 L/kg | 0.26 mL/min/kg | 0.052 | 5.4 h | 8.6 h |
| CCC(=O)O[C@]1(C(=O)SCF)[C@H](C)C[C@H]2[C@@H]3C[C@H](F)C4=CC(=O)C=C[C@]4(C)[C@@]3(F)[C@@H](O)C[C@@]21C [FLUTICASONE PROPIONATE] | 3.6 L/kg | 17 mL/min/kg | 0.1 | 3.9 h | 6 h |
| CC(C)c1cccc(C(C)C)c1O [PROPOFOL] | 4.7 L/kg | 36 mL/min/kg | 0.016 | 2.2 h | 3.2 h |
| CC(=O)O[C@H]1C[C@@H]2CC[C@@H]3[C@H](CC[C@@]4(C)[C@H]3C[C@H]([N+]3(C)CCCCC3)[C@@H]4OC(C)=O)[C@@]2(C)C[C@@H]1N1CCCCC1.[Br-] [VECURONIUM BROMIDE] | 0.3 L/kg | 4.5 mL/min/kg | 0.25 | 1.1 h | 1.4 h |
| C[C@@H](O)[C@H]1C(=O)N2C(C(=O)O)=C(S[C@H]3C[C@@H](C(=O)N4CC[C@H](NC(=O)CNC(=N)N)C4)N(C)C3)[C@H](C)[C@H]12 [TOMOPENEM] | 0.23 L/kg | 1.9 mL/min/kg | 0.91 | 2 h | 1.7 h |
| CN1C[C@H](C(=O)N[C@]2(C)O[C@@]3(O)[C@@H]4CCCN4C(=O)[C@H](Cc4ccccc4)N3C2=O)C=C2c3cccc4[nH]cc(c34)C[C@H]21 [ERGOTAMINE] | 3.6 L/kg | 15 mL/min/kg | 0.02 | 4 h | 2.1 h |
| Nc1cc(-c2ccncc2)c[nH]c1=O [INAMRINONE] | 1.3 L/kg | 8.9 mL/min/kg | 0.89 | 2.4 h | 2 h |
| Nc1ccc(O)c(C(=O)O)c1 [MESALAMINE] | 0.33 L/kg | 9.3 mL/min/kg | 0.39 | 0.59 h | 0.61 h |
| O=c1c(O)c(-c2ccc(O)c(O)c2)oc2cc(O)cc(O)c12 [QUERCETIN] | 0.12 L/kg | 11 mL/min/kg | 0.009 | 0.2 h | 0.6 h |
| CC[C@@]1(O)C(=O)OCc2c1cc1n(c2=O)Cc2cc3c(N)cccc3nc2-1 [9-AMINOCAMPTOTHECIN] | 2.2 L/kg | 6.5 mL/min/kg | 0.003 | 5.6 h | 7 h |
| CCC(C)(C)NCC(O)COc1ccccc1C(=O)CCc1ccccc1 (stereo not given) [DIPRAFENONE] | 1.2 L/kg | 11 mL/min/kg | 0.017 | 1.9 h | 1.5 h |
| CCN[C@@H](C)Cc1cccc(C(F)(F)F)c1 [DEXFENFLURAMINE] | 11 L/kg | 11 mL/min/kg | 0.66 | 18 h | 14 h |
| CC(NCCc1ccc(O)cc1)C(O)c1ccc(O)cc1 (stereo not given) [RITODRINE] | 4.4 L/kg | 31 mL/min/kg | 0.64 | 2.4 h | 2.6 h |
